Holding throughout (assay): inhibition of tumour cell growth, NCI panel, 48 h
Assay [1] relates to M14.
For assay [2], the system named is HT-29.
Assay [3] concerns Malme-3M.
Assay [4] deals with K562.
Assay [5] has as its system SN12C.
Assay [6] concerns LOX IMVI.
Assay [7] relates to HCC 2998.
For assay [8], the system named is SF-539.
In assay [9] the test system is HOP-92.
For assay [10], the system named is OVCAR-5.
The subject of assay [11] is SK-MEL-5.
Assay [12] concerns RPMI-8226.
Assay [13] deals with COLO 205.
Assay [14] has as its system CAKI-1.
For assay [15], the system named is SK-MEL-28.
Assay [16] has as its system UO-31.
The test system of assay [17] is SK-OV-3.
Assay [18] has as its system MCF7.

SMILES strings stand for the structures.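 Each compound was tested at five concentrations against cells in 96-well plates for 48 hours. Abbreviation: GI50, concentration required for 50% inhibition of growth.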 Active and inactive are the calls of the source. Rule as the data show it: active = GI50 up to about 1.1 µM and inactive = higher. Square brackets hold non-standard residues; d marks the D form. Peptide text beside a SMILES is read from it.

The values below come from ChEMBL document CHEMBL1201862, “PubChem BioAssay data set” (2004).

In the case of `COc1cccc(/C=C2\CCC(C)(CN(C)C)C2=O)c1` (configuration not stated), the GI50 in assay [1] is > 100 µM (inactive); in assay [2], 53.3 µM (inactive); in [3], > 100 µM (inactive); in [4], 43.7 µM (inactive); in [5] it was > 100 µM (inactive); in assay [6], > 100 µM (inactive). Besides, the GI50 in assay [7] was > 100 µM (inactive); in assay [8] it was > 100 µM (inactive); in [9], > 100 µM (inactive); in assay [10], > 100 µM (inactive); in assay [11], 69 µM (inactive); in assay [12] it was 28.4 µM (inactive). Moreover, the GI50 in assay [13] is 60.1 µM (inactive); in assay [14], 29.4 µM (inactive); in assay [15], > 100 µM (inactive); in assay [16] it was 81.5 µM (inactive).
`CN(C)c1cccc(OC(=O)NCCCl)c1`: the GI50 in assay [17], in assay [2], in assay [4], in [5], in assay [6] and in [7] was > 100 µM (inactive) throughout. Besides, the GI50 was > 100 µM (inactive) in assay [8]; 65.3 µM (inactive) in assay [9]; > 100 µM (inactive) in assay [10]; > 100 µM (inactive) in assay [18]; > 100 µM (inactive) in assay [11]; > 100 µM (inactive) in [13]. In addition, the GI50 in assay [14], in [15] and in assay [16] was > 100 µM (inactive) each time.
Turning to `Cc1cc(/N=N/c2ccc(/N=N/c3c(O)c(S(=O)(=O)O)cc4cc(S(=O)(=O)O)ccc34)cc2C)ccc1/N=N/c1ccc2cc(S(=O)(=O)O)cc(S(=O)(=O)O)c2c1`, the GI50 is > 47 µM (inactive) in assay [17]; > 31.6 µM (inactive) in assay [2]; > 100 µM (inactive) in assay [3]; > 100 µM (inactive) in assay [4]; > 100 µM (inactive) in [5]; > 100 µM (inactive) in assay [6]. The GI50 in [7] is > 100 µM (inactive); in [8] it was > 100 µM (inactive); in [9], > 68.5 µM (inactive); in assay [10], > 100 µM (inactive); in assay [18] it was > 100 µM (inactive); in [11], > 100 µM (inactive). Also, the GI50 in assay [12], in [13], in [15] and in [16] was > 100 µM (inactive) each time.
For the molecule `CCOc1ccc(OCC)c([P+](c2ccccc2)(c2ccccc2)c2ccccc2)c1`, the GI50 is 0.71 µM (active) in [1]; 0.315 µM (active) in assay [2]; 1.28 µM (inactive) in assay [3]; 0.213 µM (active) in assay [4]; 0.294 µM (active) in [5]; 0.35 µM (active) in [6]. In addition, the GI50 in assay [7] is 0.305 µM (active); in [8] it was 0.685 µM (active); in assay [9] it was 0.182 µM (active); in assay [10], 0.407 µM (active); in [11] it was 0.267 µM (active); in [12] it was 0.286 µM (active). Besides, the GI50 in assay [13] is 0.299 µM (active); in [14], 1.29 µM (inactive); in assay [15], 0.818 µM (active).
On to `O=C(CCN(C(=O)O)S(=O)(=O)c1ccc(NC(=O)c2ccccc2)cc1)Nc1ccccc1`, for which the GI50 was > 100 µM (inactive) in assay [1]; > 100 µM (inactive) in assay [17]; > 94.2 µM (inactive) in assay [2]; > 100 µM (inactive) in assay [3]; > 59.3 µM (inactive) in assay [4]; > 100 µM (inactive) in assay [5]. For the same molecule, the GI50 in [6] was > 57.7 µM (inactive); in assay [7] it was > 100 µM (inactive); in [8], > 100 µM (inactive); in [9] it was > 100 µM (inactive); in assay [10] it was > 100 µM (inactive); in assay [11], > 100 µM (inactive). Also, the GI50 in [12] was > 64.1 µM (inactive); in assay [13], > 61.4 µM (inactive); in [14], > 100 µM (inactive); in assay [15] it was > 100 µM (inactive); in [16] it was > 100 µM (inactive).
With `C=C1CCC2C(C)(CO)C(O)CCC2(C)C1CC(O)/C(=C/CO)C(=O)O` (configuration not stated), the GI50 in assay [1], in assay [17], in assay [2], in [3], in assay [4] and in [5] was > 100 µM (inactive) throughout. Besides, the GI50 in [6], in assay [7], in [8], in assay [9], in assay [10] and in assay [11] was > 100 µM (inactive) each time. In addition, the GI50 in [12], in assay [13], in [14] and in assay [16] was > 100 µM (inactive) throughout.
Turning to `NC(=O)c1ncn(CCN2CCN(C(=O)NCCCCCCNC(=O)N3CCN(CCn4cnc(C(N)=O)c4N)CC3)CC2)c1N`, the GI50 in assay [1], in [17], in assay [2], in [3], in assay [4] and in assay [5] was > 100 µM (inactive) throughout. Moreover, the GI50 in [6], in [7], in assay [8], in [9], in assay [10] and in [11] was > 100 µM (inactive) throughout. In addition, the GI50 in assay [12], in assay [13], in [14], in assay [15] and in assay [16] was > 100 µM (inactive) each time.
Regarding `CC1=C(C(=O)Nc2ccccc2)C(c2ccccc2Cl)C(C(=O)Nc2ccccc2)=C(C)N1`, the GI50 was 16.6 µM (inactive) in assay [1]; 37.1 µM (inactive) in assay [17]; 21 µM (inactive) in [2]; 20 µM (inactive) in assay [3]; 38.6 µM (inactive) in [4]; 18.9 µM (inactive) in assay [5]. Further, the GI50 in assay [6] was 18.6 µM (inactive); in assay [7], 21.2 µM (inactive); in assay [8] it was 20 µM (inactive); in assay [9], 21.6 µM (inactive); in [10], 24.3 µM (inactive); in assay [11], 15.2 µM (inactive). The GI50 in assay [12] was 19.4 µM (inactive); in assay [13] it was 19.4 µM (inactive); in assay [14], 27.9 µM (inactive); in [15], 27.1 µM (inactive); in assay [16], 35.6 µM (inactive).
Turning to `O=C1C(=O)N(c2ccc(Cl)c(Cl)c2)C(=O)C(=O)C1c1nc2ccccc2s1`, the GI50 in assay [1], in [17], in [2], in assay [3], in [5] and in assay [6] was > 100 µM (inactive) throughout. The GI50 in assay [7] was > 100 µM (inactive); in assay [8], > 100 µM (inactive); in assay [9], 9.55 µM (inactive); in assay [10], > 100 µM (inactive); in assay [11], > 100 µM (inactive); in assay [12] it was > 100 µM (inactive). In addition, the GI50 in assay [13], in [14], in assay [15] and in assay [16] was > 100 µM (inactive) each time.
Consider `O=C(NC/C=C/CO)c1ccccc1`, for which the GI50 in [17], in [2], in assay [3], in [4], in [5] and in assay [6] was > 100 µM (inactive) throughout. Also, the GI50 in assay [7], in assay [8], in assay [10], in assay [18], in assay [11] and in assay [12] was > 100 µM (inactive) each time. For the same molecule, the GI50 in assay [13], in assay [15] and in assay [16] was > 100 µM (inactive) each time.
Consider `O=C(O)c1cc2c(ncc3c(=O)n(-c4ccccc4)[nH]c32)s1`, for which the GI50 in [1], in assay [17], in assay [2], in assay [3], in assay [4] and in assay [5] was > 100 µM (inactive) each time. Besides, the GI50 in assay [6], in assay [7], in [8], in assay [9], in assay [10] and in assay [12] was > 100 µM (inactive) each time. The GI50 in assay [13], in assay [14], in [15] and in assay [16] was > 100 µM (inactive) each time.
Consider `CC(C)C[C@H](NC(=O)[C@H](CC(C)C)NC(=O)[C@@H](Cc1c[nH]c2ccccc12)NC(=O)[C@H](Cc1ccccc1)NC(=O)[C@@H](Cc1c[nH]c2ccccc12)NC(=O)[C@H](CCC(N)=O)NC(=O)[C@@H](CCC(N)=O)NC(=O)[C@@H]1CCCN1C(=O)[C@@H](CCCCN)NC(=O)[C@H]1CCCN1C(=O)[C@H](N)CCCN=C(N)N)C(N)=O` (H-[dR][dP][dK]P[dQ]Q[dW]F[dW]LL-NH2), for which the GI50 in assay [17] was > 100 µM (inactive); in assay [2], > 100 µM (inactive); in assay [3] it was > 31.6 µM (inactive); in [4] it was > 100 µM (inactive); in assay [5], > 100 µM (inactive); in assay [6], > 100 µM (inactive). Besides, the GI50 was > 100 µM (inactive) in [7]; > 61.4 µM (inactive) in assay [8]; > 100 µM (inactive) in assay [9]; > 100 µM (inactive) in [10]; > 100 µM (inactive) in assay [18]; > 100 µM (inactive) in [11]. Moreover, the GI50 in assay [12], in assay [13], in [15] and in assay [16] was > 100 µM (inactive) throughout.
